Row | SMILES | melting point [°C]
1 | CSc1nc(C)nc2c1-c1ccc(Cl)cc1C(c1ccccc1)=NC2 | 181 to 183
2 | O=C(OCc1ccccc1)c1ccc(O)c(CO)c1 | 109 to 110
3 | O=C(O)CCCNCCC(=O)O | 148 to 151
4 | Clc1ccc2c(c1)C(c1ccccc1)=NCc1nnc(-c3ccccc3)n1-2 | 194
5 | COc1ccc(N2CCN(c3c(C)c(C)c4c(c3C)C(c3ccccn3)C(C)(C)O4)CC2)cc1 (stereo not given) | 123 to 125
6 | COc1ccc(S(=O)(=O)C2(C(=O)NO)CCN(Cc3ccc(Br)cc3)CC2)cc1 | 180
7 | CC(=O)c1coc2cc(NS(C)(=O)=O)c(Oc3ccccc3)cc2c1=O | 175 to 177
8 | CCOC(=O)COc1ccc(C(=O)CN2CCN(c3ccncc3)CC2=O)cc1 | 163 to 165
9 | CC(=O)OCCn1ccc(=O)c(O)c1Cc1ccccc1 | 140 to 141
10 | O=C1CCc2c([nH]c3ccc(Cl)cc23)C1 | 194 to 196
11 | O=C(C1CC1)N1CCCC1Cc1ccc(Cl)cc1 (stereo not given) | 62 to 64
12 | Cc1nc(OCC(F)(F)F)c([N+](=O)[O-])c(N2CCC(c3ccccc3)CC2)n1 | 114 to 117
13 | CC1(C)[C@@H]2CC3[C@H](C(=O)O)[C@@]3(C)C[C@@H]21 (stereo not given in full) | 86
14 | Cc1cc(C)cc(OCC(O)CCCl)c1 (stereo not given) | 74 to 76
15 | CCOC(=O)c1ccc(OC(=O)CCCC(=O)Oc2ccc(C(=O)OCC)cc2)cc1 | 81 to 82
16 | COc1cc2c(cc1O)C(C1(c3ccccc3Br)CCC1)N(C)CC2 (stereo not given) | 48 to 51
17 | O=C(Nc1ccccc1F)c1ccc(CN2C(=O)C3(COc4cc5c(cc43)OCCO5)c3ccccc32)cc1 (stereo not given) | 245 to 251
18 | CSCCSc1c(O)cc(C)oc1=O | 81 to 83
19 | CC=CCn1c(C)c(C)c2cnnc(CCc3ccc(F)cc3F)c21 | 114 to 118
20 | O=c1cnc(-c2cccc(Cc3ccccc3)c2)nn1CC(F)(F)F | 95 to 96
21 | c1ccc([C@H]2CC[C@@H](Oc3ncnc4c3CCCC4)CC2)cc1 | 109
22 | CS(=O)(=O)c1ccc(-c2cnn(-c3cccc(Br)c3)c(=O)c2Oc2ccc(F)cc2)cc1 | 208 to 210
23 | CCOC(=O)C(=CNc1cccccc1=O)C(=O)OCC | 66 to 68
24 | CCCOc1ccccc1-c1nc(OCC)cc(=O)[nH]1 | 95.5 to 97
25 | COc1ccc2nc3snc(C(=O)c4ncc(C)c(OC)c4C)n3c2c1 | 196 to 197

Row | SMILES | melting point [°C]
26 | CCOC(=O)c1c(O)c(Br)c(Br)n1Cc1ccccc1 | 107 to 108
27 | O=C(O)c1cc(-c2ccncc2)n[nH]c1=O | > 310
28 | COc1ccc2c(c1)C(=O)C(=CCC(=O)OC(C)(C)C)CC2 | 76
29 | CSc1nc2ccc3c(c2o1)C(CCNC(C)=O)CC3 (stereo not given) | 115 to 117
30 | CSc1c(S(=O)(=O)NC(C)(C)C)ccn1C | 116 to 119
31 | CCOC(=O)COc1cccc2c1CCC2=O | 91 to 93
32 | CCCC(=NOCC)C1=C(O)CC(c2cc3ccccc3o2)CC1=O (stereo not given) | 70
33 | CC1(C)N=C(NC(=O)c2ccco2)N=C(NC(=O)c2ccco2)N1OCc1cccc2ccccc12 | 173 to 177
34 | O=c1oc2ccc(F)cc2c(CBr)c1Br | 125 to 127
35 | O=c1[nH]c2ccccc2n1CCN1CCC(C(c2ccc(F)cc2)c2ccc(F)cc2)CC1 | 104 to 106
36 | Cc1cc(CNC(=O)c2nc3scc(COCc4ccc(C(=O)O)cc4)c3c(=O)[nH]2)ccc1F | 246 to 248
37 | Cc1cccc(Cn2nnc(C(N)=O)c2N)c1 | 200 to 202
38 | CCCCNS(=O)(=O)CC(O)C(O)C(CC1CCCCC1)NC(=O)c1cccnc1 (stereo not given) | 61 to 64
39 | O[C@H]1CC[C@H](n2cnc(-c3ccc(F)cc3)c2-c2ccnc(Oc3ccccc3)n2)CC1 | 212 to 215
40 | CN1CCCCC1COC(=O)Nc1cccc(Br)c1 (stereo not given) | 67.3 to 68.1
41 | O=C(Nc1ccsc1)c1ccccc1 | 155 to 156
42 | CSCS[C@H](C)[C@](O)(Cn1cncn1)c1ccc(F)cc1F | 108 to 109
43 | Clc1cccc(Nc2ncnc3[nH]nc(NCc4cccnc4)c23)c1 | 204 to 206
44 | Cc1ccc(S(=O)(=O)N(CC(=O)N(C)C)c2ccc(Cl)cc2C(=O)c2ccccc2Cl)cc1 | 154 to 157
45 | O=C(CO)Cc1ccc(Cl)cc1 | 53.5
46 | O=C(Oc1cc2ccccc2cc1OC(=O)c1cc(O)c(O)c(O)c1)c1cc(O)c(O)c(O)c1 | 182 to 183
47 | CCN1C(=O)Cc2cc(C(=O)c3cccs3)ccc21 | 158 to 160
48 | NS(=O)(=O)N1CCC(C2c3ncc(Br)cc3CCc3cc(Cl)cc(Cl)c32)CC1 (single isomer, unassigned; (+)) | 133 to 134
49 | CCCCNC1=NS(=O)(=O)c2ccc(Cl)cc2N1 | 267 to 269
50 | C[Si](C)(C)C#Cc1ccc(C2=CC(c3ccc(C#C[Si](C)(C)C)cc3)N(c3ccccc3)N2)cc1 (stereo not given) | 108 to 110

Row | SMILES | melting point [°C]
51 | Cc1cccc(Nc2ccccc2C(=O)OCC(=O)N(C)C)c1C | 85 to 86
52 | O=C1COc2cc(NC(=O)C(=O)N3CCC(Cc4ccccc4)CC3)ccc2N1 | 123 to 126
53 | ON=c1cc(-c2cc3cccn3cn2)oc2ccc(OCCc3cccc(C(F)(F)F)c3)cc12 | 217 to 218
54 | CCOC(=O)c1c[nH]nc1NCc1ccccc1 | 99 to 100
55 | Cc1cccc(Nc2cc(Nc3ccc(OCCO)cc3)ncn2)c1 | 196 to 199
56 | O=C(Cl)c1cc([N+](=O)[O-])c(Cl)c([N+](=O)[O-])c1 | 55 to 57
57 | O=C(NCCO)/C(=C/c1ccc(OC(F)(F)F)cc1)NC(=O)c1ccc(Oc2ccc(Cl)cc2)cc1 | 77 to 82
58 | COc1ccc(CC#N)c(Cl)c1Cl | 118 to 119
59 | CC(=O)Oc1ccc(-c2ccc(CO)cc2S(=O)CC[Si](C)(C)C)cc1C (stereo not given) | 132 to 134
60 | ON=C(c1ccccc1)c1ccc(C(=NO)c2ccccc2)cc1 | 230 to 233
61 | Cc1ccc(C2c3c(C)c(N4CCN(c5cc(C)cc(C)c5)CC4)c(C)c(C)c3OC2(C)C)cc1 (stereo not given) | 147 to 149
62 | CC(N)=CC(=O)NC1CCCC1 | 138 to 139
63 | CCOC(=O)Nc1cc(C)cc(Nc2c3cccc(C)c3nc3c(C(=O)NCCN(C)C)cccc23)c1 | 263 to 264
64 | Clc1ccc2cc(Br)sc2n1 | 116
65 | O=C(O)Cc1cn(-c2ccccc2)nc1-c1ccccc1 | 120 to 121
66 | COc1cc(C(C)C)ccc1C1(NC(C)=O)C(=O)c2ccccc2C1=O | 222 to 224
67 | NC(=O)c1cc([N+](=O)[O-])ccc1I | 230 to 233
68 | CCCC12CCC3C4CCCC=C4CCC3C1CCC2O (stereo not given) | 115 to 119
69 | Cc1cc(C2=NOC(c3cc(Cl)cc(Cl)c3)(C(F)(F)F)C2)ccc1C(=O)Nc1ccc(Cl)cn1 (stereo not given) | 129 to 132
70 | CCOC(=O)CCc1cc(S(C)(=O)=O)cc(-c2nc(=O)c3ccc(Cl)cc3s2)n1 | 240
71 | CC(C)(C)OC(=O)N(C(=O)OC(C)(C)C)c1cc(-c2ccc([N+](=O)[O-])cc2)n(C(=O)OC(C)(C)C)n1 | 154 to 155
72 | COc1ccc(F)cc1C(C)(C)CC(O)(Cn1cc(C)c(=O)c2ccccc21)C(F)(F)F (stereo not given) | > 225
73 | CCCCCCCCCCOc1csc(-c2ccc(N)cc2)c1OCCCCCCCCCC | 64.5 to 65.5
74 | O=C1C(=O)c2ccccc2C2=C1SCC1(CCN(CC3CC3)CC1)O2 | 161 to 164
75 | Cc1cccc2c(=O)nc(-c3ccccn3)sc12 | 198

Row | SMILES | melting point [°C]
76 | C[C@H](NC(=O)[C@@H]1CCCN1CCC(=O)O)C(=O)N1CCC[C@H]1C(=O)O | 133 to 136
77 | O=C(O)C=Cc1ccc(CCNC(=O)c2ccc(Cl)cc2)cc1 | 253 to 255
78 | NC(Cc1coc2c(Cl)cccc12)=NO | 142 to 145
79 | COc1cc(C(C)=O)ccc1NCCCN1CCC(c2noc3cc(F)ccc23)CC1 | 96 to 98
80 | COc1c(C)cc(-c2cc(-c3ccncc3)c(N3CCOCC3)s2)nc1C | 129
81 | COC(=O)Nc1nc2ccc(Sc3ccccc3)cn2c1Br | 165 to 168
82 | CC(Oc1cc(C(F)(F)F)cc(C(F)(F)F)c1)C(=O)O (stereo not given) | 51 to 53
83 | C[C@]1(COc2ccc(N3CCC(Cc4cccc(OC(F)(F)F)c4)CC3)cc2)Cn2cc([N+](=O)[O-])nc2O1 | 187 to 190
84 | O=CN1CCN(c2nc3cccc4c3n2CCC4)CC1 | 138 to 139
85 | CCOC(=O)C(=O)c1cn(Cc2ccc(C(C)(C)C)cc2)c2cc(-c3ccc(OC(F)(F)F)cc3)ccc12 | 146 to 147
86 | Cc1cccn2c(=O)cc(/C=C/c3ccccc3)nc12 | 150 to 152
87 | CC(C)c1nc(CO)n(C)c1Sc1cc(Cl)cc(Cl)c1 | 157 to 158
88 | COC(=O)c1cc([N+](=O)[O-])ccc1-c1c(OC)cccc1OC | 157
89 | COC(=O)Nc1ccccc1-c1c(C(=O)OC)c2cc(OC)c(OC)cc2c(=O)n1C | 165 to 170
90 | Cc1noc(NC(=O)N2CCN(c3cncc(-c4ccc(F)cc4F)c3)CC2)c1C | 147 to 148
91 | CSc1ccc(-c2nn(Cc3cccnc3)c(=S)cc2-c2ccc(Cl)cc2)cc1 | 130 to 131
92 | CCOC(=O)c1c(N2CCN(C(=O)c3cccs3)CC2)c2c(C)csc2n(Cc2ccccc2)c1=O | 195
93 | Cc1noc(-c2cc(O)c(O)c([N+](=O)[O-])c2)n1 | 201 to 202
94 | CN(CC(C)(C)c1ccc(Cl)c(Cl)c1)C(=O)Nc1c(F)cc(F)cc1CCc1cc(C(C)(C)C)c(O)c(C(C)(C)C)c1 | 145 to 147
95 | CSc1nc(C)n(CC(=O)O)c(=O)c1C#N | 236 to 238
96 | COC1(c2ccc(N(C)C)cc2)OC(=O)c2cc(N(C)C)ccc21 (stereo not given) | 140 to 147
97 | CCc1nc2c(N)nc3cc(OCc4ccc(C(=O)OC)o4)ccc3c2s1 | 184 to 186
98 | CC(=O)N(C)CCc1ccc(C(=O)O)cc1 | 149 to 151
99 | O=C(CC1CCCCC1)Nc1ccc2oc3c(c2c1)CCCCCC3 | 180 to 181
100 | COc1ccc(-c2cc3cc(F)c(F)cc3[nH]2)cc1NCc1cccs1 | 190 to 192

Reference: a melting point compilation (Tetko et al.; mined from patent text by program, amines drawn as free bases though some values may be those of a salt)
